Assay results reported in paper PMC7822874, “Chemoprotective antimalarials identified through quantitative high-throughput screening of Plasmodium blood and liver stage parasites” (Scientific Reports, 2021).
Like-named read-outs stand apart in the source and are kept apart here.

Experiments:
[1] = in vitro; details: human, hepg2 cells
[2] = test system: Plasmodium falciparum Dd2 asexual blood stage parasites; experiment: microbe, parasite or virus in culture; design: species or system Plasmodium falciparum Dd2 in human erythrocytes; single determination (one 11-point concentration-response curve); details: Plasmodium falciparum, DD2, Erythrocyte, 72 h; read-out: AC50
[3] = in vitro; details: human, HepG2-A16-CD81EGFP cells, uninfected
[4] = test system: P. falciparum Dd2 (clone B2) asexual blood stage parasites; experiment: P. falciparum Dd2 asexual blood stage SYBR Green-I 72 h proliferation assay (qHTS); type: cell-based, Plasmodium falciparum; details: log10 of AC50 in M; for Pf ABS Log AC50 (M): averaged P. falciparum asexual blood stage potency
[5] = test system: HepG2-A16-CD81EGFP cells; details: averaged response (percent)
[6] = test system: P. berghei-ANKA-GFP-LucCON liver stage parasites in HepG2-A16-CD81EGFP cells; experiment: P. berghei liver stage Pb-Luc assay, Method 1 (UCSD, 1536-well); type: cell-based, Plasmodium berghei; details: P. berghei liver stage, averaged response (percent); for Average P. berghei 1 µM response (%): the header list (r8) defines it as the 1 µM dose
[7] = in vitro; details: human, hepg2-a16-cd81egfp cells, % viability
[8] = test system: luciferase-expressing P. berghei liver stage parasites in HepG2 cells; experiment: Inhibition of liver-stage development assay (ILSDA), Method 2 (WRAIR, 96-well); type: cell-based, Plasmodium berghei; details: Method 2, dose response; for AC50: Plasmodium berghei, HepG2, P. berghei liver stage
[9] = HepG2, the header list (r10) describes it as the 1 µM dose

Structure (SMILES): CN(C)c1ccc2ncc(Nc3ccc(Oc4ccccc4)cc3)n2n1 [NCGC00412534-01]
- CC50 at 48 h [1]: > 57 µM
- AC50 [2]: 8.63 µM

Structure (SMILES): COCC(=O)N[C@H]1C[C@@H](Cc2cc(-c3ccc(OC)cc3)on2)C1(C)C [NCGC00395450-01]
- CC50 at 48 h [1]: > 57 µM

Structure (SMILES): Cc1nn2c(c1-c1ccccc1OCc1ccccc1)N(Cc1ccccc1)CCC2 [NCGC00420471-01]
- CC50 at 48 h [1]: > 57 µM
- AC50 [2]: 15.3 µM

Structure (SMILES): O=C(c1ccc(-c2ncc3cnc(-c4cccc(F)c4)cn23)cc1)N1CCc2cccnc21 [NCGC00414026-01]
- CC50 at 48 h [1]: > 57 µM

Structure (SMILES): O=C(Nc1ccc(Cl)cc1)c1nc2c(o1)CCN(Cc1ccc(F)cc1F)CC2 [NCGC00413332-01]
- CC50 at 48 h [1]: > 57 µM

Structure (SMILES): Cc1nn2c(c1-c1ccccc1[S+](C)(=O)[O-])N(Cc1ccc(C(=O)O)s1)CCC2 [NCGC00420344-01]
- CC50 at 48 h [1]: > 57 µM
- AC50 [2]: 7.69 µM

Structure (SMILES): Cc1nn2c(c1-c1ccccc1-c1ccccc1)N(Cc1cccc(O)c1)CCC2 [NCGC00420293-01]
- CC50 at 48 h [1]: > 57 µM
- AC50 [2]: 4.85 µM

Structure (SMILES): Cc1cc(N2CCC(N(C)C3CCCC3)CC2)nc2cc(O)ccc12 [MLS000118330-01]
- CC50 at 48 h [1]: > 57 µM
- AC50 [2]: 5.96 µM

Structure (SMILES): Cc1nn2c(c1-c1ccccc1Oc1ccccc1)N(Cc1cccc(O)c1)CCC2 [NCGC00420295-01]
- CC50 at 48 h [1]: > 57 µM
- AC50 [2]: 10.9 µM

Structure (SMILES): CCCn1c2c(c(=N)c3c1CCC3)CCC2 [MLS001047442-01]
- viability at 48 h [3]: 99.2%
- viability at 48 h, 1 µM [3]: 99.2%
- CC50 at 48 h [1]: > 57 µM
- AC50 [2]: 13.3 µM

Structure (SMILES): COc1ccc(CN2C[C@@H](F)[C@@H](OCc3nc4cc(C)ccc4[nH]3)C2)cc1 [NCGC00393009-01]
- CC50 at 48 h [1]: > 57 µM

Structure (SMILES): COc1ccc(-c2cc3nc4c(c(=O)n3[nH]2)CN(C(=O)c2ccc(Cc3c(C)noc3C)o2)CC4)cc1 [NCGC00440331-01]
- CC50 at 48 h [1]: 0.685 µM

Structure (SMILES): Cc1noc(C)c1-c1cc2c(cc(-c3ccccc3)n2C)c(-c2ccnn2C)n1 [NCGC00417162-01]
- CC50 at 48 h [1]: > 57 µM
- AC50 [2]: 8.63 µM

Structure (SMILES): CCN1CCN(c2cc(C)c3cc(NC(=O)c4cccc(Cl)c4)ccc3n2)CC1 [NCGC00103820-01]
- CC50 at 48 h [1]: > 57 µM
- AC50 [2]: 4.73 µM

Structure (SMILES): O=c1c2nc(-c3cccc(O)c3)ccc2ncn1C1CC1 [NCGC00414734-01]
- CC50 at 48 h [1]: > 57 µM

Structure (SMILES): Cc1nn2c(c1-c1ccccc1C(C)C)N(CCC(C)C)CCC2 [NCGC00420439-01]
- CC50 at 48 h [1]: > 57 µM
- AC50 [2]: 2.17 µM

Structure (SMILES): COc1ccc(-[n+]2c(-c3ccc(Br)cc3)cn3c2CCc2ccccc2-3)cc1.[Br-] [MLS000391920]
- Pf ABS Log AC50 (M) [4]: -5.612 M
- Average HepG2 3 µM response( %) ([5]; HepG2, 3 µM dose): 65%
- Average HepG2 3 µM response( %) [5, 9]: 95%
- Average P. berghei 3 µM response( %) [6]: 11%
- Average P. berghei 1 µM response (%) [6]: 57%
- viability at 3 µM [7]: 65.4%

Structure (SMILES): Cc1csc(Nc2ccc3c(n2)CN(Cc2ccccc2C)C(=O)CO3)n1 [NCGC00413860-01]
- CC50 at 48 h [1]: > 57 µM
- AC50 [2]: 19.3 µM

Structure (SMILES): Nc1nonc1-n1nnc(C(=O)N/N=C/c2ccc(F)cc2)c1-c1ccc2c(c1)OCO2 [MLS001142639]
- Pf ABS Log AC50 (M) [4]: -6.637 M
- Average HepG2 3 µM response( %) ([5]; HepG2, 3 µM dose): 95%
- Average HepG2 3 µM response( %) [5, 9]: 92%
- Average P. berghei 3 µM response( %) [6]: 143%
- Average P. berghei 1 µM response (%) [6]: 115%
- viability at 3 µM [7]: 95.3%

Structure (SMILES): COc1ccc(NC(=O)CN(C)C(=O)c2ccc(-c3ccccc3Cl)o2)cc1 [MLS001078689]
- Pf ABS Log AC50 (M) [4]: -5.750 M
- Average HepG2 3 µM response( %) ([5]; HepG2, 3 µM dose): 105%
- Average HepG2 3 µM response( %) [5, 9]: 99%
- Average P. berghei 3 µM response( %) [6]: 111%
- Average P. berghei 1 µM response (%) [6]: 109%
- viability at 3 µM [7]: 105%

Structure (SMILES): O=C(CCl)Nc1ccc(Oc2cnc3ccccc3n2)cc1 [MLS000327546]
- Pf ABS Log AC50 (M) [4]: -5.812 M
- Average HepG2 3 µM response( %) ([5]; HepG2, 3 µM dose): 91%
- Average HepG2 3 µM response( %) [5, 9]: 88%
- Average P. berghei 3 µM response( %) [6]: 121%
- Average P. berghei 1 µM response (%) [6]: 109%
- viability at 3 µM [7]: 90.9%

Structure (SMILES): N=c1c2c(n(Cc3ccc(F)cc3)c3c1CCC3)CCC2 [MLS000107591]
- Pf ABS Log AC50 (M) [4]: -5.862 M
- Average HepG2 3 µM response( %) ([5]; HepG2, 3 µM dose): 78%
- Average HepG2 3 µM response( %) [5, 9]: 100%
- Average P. berghei 3 µM response( %) [6]: 16%
- Average P. berghei 1 µM response (%) [6]: 68%
- viability at 3 µM [7]: 77.7%

Structure (SMILES): Cc1ccc(NC2=C(N3CCCCC3)C(=O)c3ccccc3C2=O)cc1 [MLS000532222]
- Pf ABS Log AC50 (M) [4]: -6.600 M
- Average HepG2 3 µM response( %) ([5]; HepG2, 3 µM dose): 77%
- Average HepG2 3 µM response( %) [5, 9]: 99%
- Average P. berghei 3 µM response( %) [6]: 14%
- Average P. berghei 1 µM response (%) [6]: 71%
- viability at 3 µM [7]: 76.9%

Structure (SMILES): C=C(C)CSc1nc2sc3c(c2c(=O)n1-c1ccc(C)cc1)CCN(C)C3 [MLS001173676]
- Pf ABS Log AC50 (M) [4]: -5.800 M
- Average HepG2 3 µM response( %) ([5]; HepG2, 3 µM dose): 87%
- Average HepG2 3 µM response( %) [5, 9]: 97%
- Average P. berghei 3 µM response( %) [6]: 59%
- Average P. berghei 1 µM response (%) [6]: 87%
- viability at 3 µM [7]: 86.9%

Structure (SMILES): O=c1[nH]c(N2CCOCC2)nc2c1CCN(Cc1ccc(Cl)cc1F)CC2 [NCGC00440653]
- AC50 ([4]; Plasmodium falciparum, DD2, averaged P. falciparum asexual blood stage potency, read-out: Pf ABS Log AC50 (converted)): 3.35 µM
- Average HepG2 3 µM response( %) ([5]; HepG2, 3 µM dose): 102%
- Average HepG2 3 µM response( %) [5, 9]: 102%
- Average P. berghei 3 µM response( %) [6]: 41%
- Average P. berghei 1 µM response (%) [6]: 39%
- Activity direction (Decrease / Inactive) ([8]; P. berghei liver stage): Decrease
- AC50 ([8]; read-out: AC50): 0.112 µM
- AC50 ([8]; read-out: Log AC50 (converted)): 0.112 µM

Structure (SMILES): Cc1ccc(O)c(-c2cc(C(=O)Nc3ccc([S+](=O)([O-])N4CC(C)OC(C)C4)cc3)n[nH]2)c1 (stereo not shown) [NCGC00071593]
- Pf ABS Log AC50 (M) [4]: -6.150 M
- Average HepG2 3 µM response( %) ([5]; HepG2, 3 µM dose): 97%
- Average HepG2 3 µM response( %) [5, 9]: 100%
- Average P. berghei 3 µM response( %) [6]: 65%
- Average P. berghei 1 µM response (%) [6]: 89%
- viability at 3 µM [7]: 97%

Structure (SMILES): Cc1cccc(-c2cc3nc(C)c(C)c(NCCCn4ccnc4)n3n2)c1 [MLS000529525]
- Pf ABS Log AC50 (M) [4]: -5.512 M
- Average HepG2 3 µM response( %) ([5]; HepG2, 3 µM dose): 87%
- Average HepG2 3 µM response( %) [5, 9]: 97%
- Average P. berghei 3 µM response( %) [6]: 119%
- Average P. berghei 1 µM response (%) [6]: 131%
- viability at 3 µM [7]: 87.2%

Structure (SMILES): COCCNc1ncccc1-c1noc([C@@H]2CCCN2Cc2ccccn2)n1 [NCGC00394837-01]
- CC50 at 48 h [1]: > 57 µM
- AC50 [2]: 7.69 µM

Structure (SMILES): CC(C)N(Cc1ccccc1)C(=O)CN1C(=O)COc2ccc([S+](=O)([O-])N3CCCCCC3)cc21 [NCGC00123222]
- Pf ABS Log AC50 (M) [4]: -6.100 M
- Average HepG2 3 µM response( %) ([5]; HepG2, 3 µM dose): 94%
- Average HepG2 3 µM response( %) [5, 9]: 99%
- Average P. berghei 3 µM response( %) [6]: 127%
- Average P. berghei 1 µM response (%) [6]: 105%
- viability at 3 µM [7]: 93.6%
